Data on 31 compounds can be found in paper PMC10674894 (Viruses, 2023).

In one data set the test system is Vero cells. The data set can be described thus: Cytotoxicity MTT assay in Vero cells (MNTD, CC50). The format is cell-based, African green monkey.
The next data set concerns CHIKV DRDE-07. In words: In vitro screening against CHIKV (CPE inhibition and MTT cell viability). The data set is classed as cell-based, chikungunya virus. The settings on record: for % Cell viability / CPE: Table S1, CHIKV-infected Vero cells; for % Cell viability / Cell Viability: 72 hpi; for % Cell viability: MTT assay; for CPE: arbitrary score of cytopathic effect at >48 hpi; for Cell Viability: CHIKV-infected Vero cells treated at MNTD, MTT, cell control + DMSO = 100%.

Where [1] appears, read: maximum nontoxic dose in Vero cells, MTT.

The compound `Cc1ccc(C2C3=C(CC(C)(C)CC3=O)OC3=C2C(=O)CC(C)(C)C3)cc1` [DCR127, 3,3,6,6‐tetramethyl‐9‐(4‐methylphenyl)‐2,3,4,5,6,7,8,9‐octahydro‐1H‐xanthene‐1,8‐dione] had an MNTD with Vero cells (Table S1, Vero cells) of 125 µM. Also, in the data set on CHIKV DRDE-07, the “% Cell viability” value is reported as 10.21% and the CPE entry is reported as “++++ (>60% (++++))”.

`C/C(=N\NC(=O)c1cccnc1)c1c(O)ccc2ccccc12` [DCR47, (E)-N'-(1-(2-hydroxynaphthalen-1-yl)ethylidene)nicotinohydrazide] returned an MNTD in the data set with Vero cells (Table S1, Vero cells) of 31.25 µM. In addition, in the data set with CHIKV DRDE-07, the “% Cell viability” value is 6.42% and the CPE result is given as “++++ (>60% (++++))”.

Regarding `N#Cc1c(F)cccc1N1CCCCC1` [DCR141, 2-Fluoro-6-piperidin-1-yl-benzonitrile], the MNTD in the data set on Vero cells (Table S1, Vero cells) was determined as 125 µM. Besides, in the data set on CHIKV DRDE-07, the “% Cell viability” value is 19.24% and the CPE result is reported as “++++ (>60% (++++))”.

In the data set on Vero cells (Table S1, Vero cells), `C#CCOC(=O)C1=C(C)NC(=O)NC1c1cccc(F)c1` (centres unmarked) [DCR95, prop-2-yn-1-yl 4-(3-fluorophenyl)-6-methyl-2-oxo-1,2,3,4-tetrahydropyrimidine-5-carboxylate] yielded an MNTD of 433.62 µM. Also, in the data set on CHIKV DRDE-07, the “% Cell viability” value was 11.54% and the CPE entry is given as “++++ (>60% (++++))”.

Consider `Cc1ccc(-c2cc(-c3ccc(O)cc3)nn2C(=O)c2cccnc2)cc1` [DCR57, 4-[5-(4-methylphenyl)-1-(pyridine-3-carbonyl)-1H-pyrazol-3-yl]phenol], for which the MNTD in the data set with Vero cells (Table S1, Vero cells) is reported as 31.25 µM. Besides, in the data set with CHIKV DRDE-07, the “% Cell viability” value was 24.84% and the CPE entry is given as “++++ (>60% (++++))”.

As to `CCc1ccc(C2c3c(ccc4ccccc34)Oc3ccc4ccccc4c32)cc1` [DCR118, 2‐(4‐ethylphenyl)‐13‐oxapentacyclo[12.8.0.0³,¹².0⁴,⁹.0¹⁷,²²]docosa‐1(14),3,5,7,9,11,15,17(22),18,20‐decaene], the MNTD in the data set on Vero cells (Table S1, Vero cells) was determined as 31.25 µM. In addition, in the data set with CHIKV DRDE-07, the “% Cell viability” value is 14.23% and the CPE result was “++++ (>60% (++++))”.

In turn, `O=C(NNC(=O)c1cccnc1)c1ccc(Cl)cc1` [DCR6, N'-(4-chlorobenzoyl)nicotinohydrazide] registered an MNTD with Vero cells (Table S1, Vero cells) of 31.25 µM. For the same compound, in the data set with CHIKV DRDE-07, the “% Cell viability” value is 16.98% and the CPE result is reported as “++++ (>60% (++++))”.

As to `CC(=O)Cc1noc(C(c2ccccc2)c2ccccc2)n1` [DCR79, 1-[5-(diphenylmethyl)-1,2,4-oxadiazol-3-yl]propan-2-one], the MNTD with Vero cells (Table S1, Vero cells) came to 125 µM. Also, in the data set with CHIKV DRDE-07, the “% Cell viability” value was determined as 16.42% and the CPE result was “++++ (>60% (++++))”.

In the data set with Vero cells (Table S1, Vero cells), `COc1ccc(C2NC(=O)NC(C)=C2C(=O)OCc2ccc(Cl)cc2)cc1` (centres unmarked) [DCR100, (4-chlorophenyl)methyl 4-(4-methoxyphenyl)-6-methyl-2-oxo-1,2,3,4-tetrahydropyrimidine-5-carboxylate] had an MNTD of 323.15 µM. In the data set with CHIKV DRDE-07, the “% Cell viability” value is 12.84% and the CPE result is on record as “++++ (>60% (++++))”.

For the compound “(E)-N'-(5-bromo-2-methoxybenzylidene)isonicotinohydrazide [DCR39]”, the MNTD in the data set with Vero cells (Table S1, Vero cells) turned out to be 31.25 µM. In addition, in the data set with CHIKV DRDE-07, the “% Cell viability” value stood at 3.81% and the CPE entry is given as “++++ (>60% (++++))”.

In turn, `Clc1ccc(C2c3c(ccc4ccccc34)Oc3ccc4ccccc4c32)cc1` [DCR115, 2‐(4‐chlorophenyl)‐13‐oxapentacyclo[12.8.0.0³,¹².0⁴,⁹.0¹⁷,²²]docosa‐1(14),3,5,7,9,11,15,17(22),18,20‐decaene] had an MNTD in the data set on Vero cells (Table S1, Vero cells) of 125 µM. In the data set on CHIKV DRDE-07, the “% Cell viability” value is 17.1% and the CPE result is “++++ (>60% (++++))”.

As for `COc1ccc(C2NC(=O)NC(C)=C2C(=O)OCCN(C)C)cc1` (centres unmarked) [DCR112, 2-(dimethylamino)ethyl 4-(4-methoxyphenyl)-6-methyl-2-oxo-1,2,3,4-tetrahydropyrimidine-5-carboxylate], in the data set with Vero cells (Table S1, Vero cells), the MNTD is listed as 62.5 µM. Also, in the data set with CHIKV DRDE-07, the “% Cell viability” value is 2.09% and the CPE entry is “++++ (>60% (++++))”.

As for `COc1ccc(C2c3c(ccc4ccccc34)Oc3ccc4ccccc4c32)cc1` [DCR113, 2‐(4‐methoxyphenyl)‐13‐oxapentacyclo[12.8.0.0³,¹².0⁴,⁹.0¹⁷,²²]docosa‐1(14),3,5,7,9,11,15,17(22),18,20‐decaene], in the data set on Vero cells (Table S1, Vero cells), the MNTD is given as 31.25 µM. Further, in the data set on CHIKV DRDE-07, the “% Cell viability” value worked out at 5.04% and the CPE entry is reported as “++++ (>60% (++++))”.

With `O=C(N/N=C/c1ccccc1[N+](=O)[O-])c1cccnc1` [DCR20, (E)-N'-(2-nitrobenzylidene)nicotinohydrazide], the MNTD with Vero cells (Table S1, Vero cells) came out at 31.25 µM. In the data set with CHIKV DRDE-07, the “% Cell viability” value is reported as 22.69% and the CPE entry is on record as “++++ (>60% (++++))”.

`CCOc1cc(-c2cc(-c3ccc(O)cc3)nn2C(=O)c2cccnc2)ccc1O` [DCR59, 2-ethoxy-4-[3-(4-hydroxyphenyl)-1-(pyridine-3-carbonyl)-1H-pyrazol-5-yl]phenol] yielded an MNTD in the data set on Vero cells (Table S1, Vero cells) of 15.62 µM. In the data set on CHIKV DRDE-07, the “% Cell viability” value is listed as 49.1% and the CPE result is recorded as “+++ (60-50% (+++))”.

For the compound `O=C(N/N=C/c1ccccc1)c1cccnc1` [DCR14, (E)-N'-benzylidenenicotinohydrazide], the MNTD in the data set on Vero cells (Table S1, Vero cells) amounted to 31.25 µM. For the same compound, in the data set with CHIKV DRDE-07, the “% Cell viability” value is on record as 22.93% and the CPE result is “++++ (>60% (++++))”.

For the compound `CC1CN(c2ccc(C(=N)NO)c(Cl)c2)CC(C)N1` (centres unmarked) [DCR149, 2-Chloro-4-(3,5-dimethyl-piperazin-1-yl)-N-hydroxy-benzamidine], the MNTD in the data set with Vero cells (Table S1, Vero cells) came out at 125 µM. Also, in the data set on CHIKV DRDE-07, the “% Cell viability” value is -21.8% and the CPE result was “++++ (>60% (++++))”.

In turn, `C/C(=N\NC(=O)c1ccncc1)c1ccccc1O` [DCR49, (E)-N'-(1-(2-hydroxyphenyl)ethylidene)isonicotinohydrazide] gave an MNTD in the data set on Vero cells (Table S1, Vero cells) of 62.5 µM. Further, in the data set on CHIKV DRDE-07, the “% Cell viability” value came out at 48.9% and the CPE entry is “+++ (60-50% (+++))”.

Take `COc1ccc(-c2nc(CC(C)=O)no2)cc1` [DCR76, 1-[5-(4-methoxyphenyl)-1,2,4-oxadiazol-3-yl]propan-2-one]: the MNTD with Vero cells (Table S1, Vero cells) worked out at 125 µM. For the same compound, in the data set with CHIKV DRDE-07, the “% Cell viability” value was 19.42% and the CPE result was “++++ (>60% (++++))”.

In the case of `CC(=O)Cc1noc(-c2cccc([N+](=O)[O-])c2)n1` [DCR81, 1-[5-(3-nitrophenyl)-1,2,4-oxadiazol-3-yl]propan-2-one], the MNTD in the data set with Vero cells (Table S1, Vero cells) is reported as 125 µM. For the same compound, in the data set on CHIKV DRDE-07, the “% Cell viability” value is 0% and the CPE entry is “++++ (>60% (++++))”.

In the case of `Clc1cccc(C2c3c(ccc4ccccc34)Oc3ccc4ccccc4c32)c1` [DCR116, 2‐(3‐chlorophenyl)‐13‐oxapentacyclo[12.8.0.0³,¹².0⁴,⁹.0¹⁷,²²]docosa‐1(14),3,5,7,9,11,15,17(22),18,20‐decaene], in the data set on Vero cells (Table S1, Vero cells), the MNTD is reported as 31.25 µM. Also, in the data set on CHIKV DRDE-07, the “% Cell viability” value is given as 10.84% and the CPE entry is “++++ (>60% (++++))”.

As for `Fc1ccc(C2c3c(ccc4ccccc34)Oc3ccc4ccccc4c32)cc1` [DCR117, 2‐(4‐fluorophenyl)‐13‐oxapentacyclo[12.8.0.0³,¹².0⁴,⁹.0¹⁷,²²]docosa‐1(14),3,5,7,9,11,15,17(22),18,20‐decaene], the MNTD in the data set with Vero cells (Table S1, Vero cells) is 125 µM. In the data set on CHIKV DRDE-07, the “% Cell viability” value was found to be 14.01% and the CPE result is “++++ (>60% (++++))”.

As for `Brc1cc2c(c3ncccc13)Oc1ncccc1O2` [DCR 1, 5-bromo-7,12-dioxa-1,11-diaza-benzo[a]anthracene], the MNTD with Vero cells (Table S1, Vero cells) stood at 50 µM. In the data set with Vero cells (setting [1]), this compound displayed an MNTD of 50 µM. Moreover, in the data set on CHIKV DRDE-07, the “Cell Viability” value worked out at 72% and the CPE result was “++ (50-30% (++))”.

In the case of `CCOc1cc(C2C3=C(CC(C)(C)CC3=O)OC3=C2C(=O)CC(C)(C)C3)ccc1O` [DCR130, 9‐(3‐ethoxy‐4‐hydroxyphenyl)‐3,3,6,6‐tetramethyl‐2,3,4,5,6,7,8,9‐octahydro‐1H‐xanthene‐1,8‐dione], in the data set on Vero cells (Table S1, Vero cells), the MNTD was determined as 15.6 µM. Besides, in the data set on CHIKV DRDE-07, the “% Cell viability” value is given as 17.21% and the CPE entry was “++++ (>60% (++++))”.

As for `Cc1ccc(-c2cc(-c3ccc(O)cc3)nn2C(=O)c2cccnc2)cc1` [DCR56, 4-[5-(4-methylphenyl)-1-(pyridine-3-carbonyl)-1H-pyrazol-3-yl]phenol], the MNTD with Vero cells (Table S1, Vero cells) amounted to 31.25 µM. Besides, in the data set with CHIKV DRDE-07, the “% Cell viability” value stood at 24.2% and the CPE entry is recorded as “++++ (>60% (++++))”.

`COc1cc(-c2cc(-c3ccc(O)cc3)nn2C(=O)c2cccnc2)cc(OC)c1OC` [DCR60, 4-[1-(pyridine-3-carbonyl)-5-(3,4,5-trimethoxyphenyl)-1H-pyrazol-3-yl]phenol] displayed an MNTD in the data set with Vero cells (Table S1, Vero cells) of 31.25 µM. Further, in the data set with CHIKV DRDE-07, the “% Cell viability” value is reported as -3.41% and the CPE entry was “++++ (>60% (++++))”.

In the case of `O=C1NC(c2ccc(C(F)(F)F)cc2)c2c(ccc3ccccc23)O1` (centres unmarked) [DCR70, 1-[4-(trifluoromethyl)phenyl]-1H,2H,3H-naphtho[1,2-e][1,3]oxazin-3-one], the MNTD in the data set on Vero cells (Table S1, Vero cells) was determined as 45.44 µM. Also, in the data set on CHIKV DRDE-07, the “% Cell viability” value is 10.59% and the CPE entry is on record as “++++ (>60% (++++))”.

Compound `O=C(NNC(=O)c1ccccc1Cl)c1ccncc1` [DCR10, N'-(2-chlorobenzoyl)isonicotinohydrazide] registered an MNTD in the data set with Vero cells (Table S1, Vero cells) of 31.25 µM. Also, in the data set on CHIKV DRDE-07, the “% Cell viability” value amounted to 21.19% and the CPE entry is listed as “++++ (>60% (++++))”.

In the data set with Vero cells (Table S1, Vero cells), `COc1ccc(/C(=N\NC(=O)c2cccnc2)c2ccccc2)cc1` [DCR48, (Z)-N'-((4-methoxyphenyl)(phenyl)methylene)nicotinohydrazide] had an MNTD of 31.25 µM. In the data set with CHIKV DRDE-07, the “% Cell viability” value is reported as 20.87% and the CPE entry is “++++ (>60% (++++))”.

In the data set with Vero cells (Table S1, Vero cells), `O=C1NC(c2cccc(Cl)c2)c2c(ccc3ccccc23)O1` (centres unmarked) [DCR68, 1-(3-chlorophenyl)-1H,2H,3H-naphtho[1,2-e][1,3]oxazin-3-one] yielded an MNTD of 53.27 µM. For the same compound, in the data set on CHIKV DRDE-07, the “% Cell viability” value was determined as 10.84% and the CPE entry is listed as “++++ (>60% (++++))”.

The compound `Nc1nc(N)c2ccccc2n1` [DCR 134, Quinazoline-2,4-diamine] returned an MNTD with Vero cells (Table S1, Vero cells) of 150 µM. The MNTD in the data set on Vero cells (setting [1]) stood at 150 µM. Further, in the data set with CHIKV DRDE-07, the “Cell Viability” value was 75.9% and the CPE entry is on record as “+ (<30%)”.
